From US11286268B1, “EIF4E-inhibiting compounds and methods” (EFFECTOR THERAPEUTICS, INC., priority 2019, dated 2022)
Where two headings read alike, the source gives them in different places.

Target: recombinant eIF4E (Homo sapiens (Human), UniProt P06730)
Assay: Fluorescence polarization competition assay for eIF4E binding potency
Protocol: Compounds were screened for eIF4E binding potency using a fluorescence polarization competition assay. All binding reactions were performed in fluorescence polarization buffer (FPB) containing 20 mM Tris pH 7.5, 100 mM NaCl, 1 mM DTT, and 0.02% Tween-20. Final binding reactions contained 75 nM recombinant eIF4E (Beryllium, custom order), 20 nM EDA-m^7GDP-ATTO-550 (Jena Bioscience, NU-827-550) and varying concentrations of the inhibitory compound of interest. Final DMSO concentration in each reaction was 1%.
eIF4E protein was pre-incubated with EDA-m^7GDP-ATTO-550 in FPB at 2× concentrations for 5 minutes prior to the addition of compounds. Compounds (100×) were prepared using 3-fold serial dilutions in 100% DMSO, and subsequently diluted 1:50 in FPB to produce 2× stocks. 50 μl of 2× eIF4E/EDA-m^7GDP-ATTO-550 were transferred to the wells of a 96-well half-area black flat bottom polystyrene plate. 50 μl of 2× test compound were added, and binding reactions were allowed to equilibrate for 30 minutes at room temperature while protected from light. The fluorescent polarization signal was detected using a Victor 2 multi-label counter (Perkin Elmer) and the concentration necessary to achieve inhibition of eIF4E/EDA-m^7GDP-ATTO-550 binding by 50% (IC50) was calculated using data from an 8-point compound dilution series.
In Table 4A, IC50 values of less than 0.05 μM are labelled as “+++”, from 1 to 0.05 μM are labelled as “++”, and greater than 1 μM are labelled as “+”. ND=not determined.

[1] = inhibition of eIF4E/EDA-m7GDP-ATTO-550 binding by 50%, Table 4B calculated values, read-out: IC50
[2] = fluorescence polarization competition, 75 nM recombinant eIF4E, 20 nM EDA-m7GDP-ATTO-550, IC50 class, read-out: elF4E FP

Chain of recombinant eIF4E (P06730 whole entry): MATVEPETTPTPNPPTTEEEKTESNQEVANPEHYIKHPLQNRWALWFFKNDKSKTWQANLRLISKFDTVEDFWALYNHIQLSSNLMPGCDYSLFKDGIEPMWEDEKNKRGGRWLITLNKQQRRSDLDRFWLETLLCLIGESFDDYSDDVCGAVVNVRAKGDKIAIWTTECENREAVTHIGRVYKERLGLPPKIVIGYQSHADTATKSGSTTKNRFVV

Row | Structure (SMILES) | IC50 [1] [µM] | IC50 [2] [µM]
1 | Cc1nc2cncc(C#N)c2c(=O)n1CCOc1ccc(Cl)cc1-c1cccc(P(=O)(O)O)c1 [150FA] | 0.0631 | –
2 | Cc1nc2cncc(C#N)c2c(=O)n1CCOc1ccc(Cl)cc1-c1cccc(P(=O)(O)OC(C)C)c1 [150FB] | 0.143 | –
3 | Cc1nc2cnccc2c(=O)n1CCOc1ccc(Cl)cc1-c1cccc(P(=O)(O)O)c1 [150FC] | 0.124 | –
4 | Cc1cc(-c2cc(Cl)ccc2OCCn2c(C)nc3cc(Cl)c(N4C[C@@H](C)N(C)[C@@H](C)C4)c(C#N)c3c2=O)c2sc(C)c(C(=O)O)c2n1 [1090a] | 0.0383 | –
5 | Cc1cc(-c2cc(Cl)ccc2OCCn2c(C)nc3cc(N4C[C@@H](C)N(C)[C@@H](C)C4)c(F)c(C#N)c3c2=O)c2sc(C)c(C(=O)O)c2n1 [1090b] | 0.503 | –
6 | Cc1nc2cnc(N(C)C3CCN([C@H]4C[C@@H](OC(F)(F)F)C4)CC3)c(C#N)c2c(=O)n1CC#Cc1ccc(Cl)cc1-c1ccnc2c(C(=O)O)csc12 [1173a] | 0.0192 | –
7 | COCCC(CCOC)N(C)c1ncc2nc(C)n(CC#Cc3ccc(Cl)cc3-c3ccnc4c(C(=O)O)csc34)c(=O)c2c1C#N [1173b] | 0.013 | –
8 | Cc1nc2cc(C(F)(F)F)cc(C#N)c2c(=O)n1CCOc1ccc(Cl)cc1-c1ccnc2c(C(=O)O)csc12 [Compound 272] | 0.0229 | < 0.05
9 | COc1cncc(-c2c(C(F)(F)F)cc3nc(C)n(CCOc4ccc(Cl)cc4-c4cc(C)nc5c(C(=O)O)csc45)c(=O)c3c2C#N)c1 [Compound 1060] | 0.0509 | 0.05 to 1
10 | CCc1cc(-c2cc(Cl)ccc2OCCn2c(C)nc3c(C)nc(N)c(C#N)c3c2=O)c2scc(C(=O)O)c2n1 [Compound 1069] | 0.00152 | < 0.05
11 | Cc1nc2cnccc2c(=O)n1CCOc1ccc(Cl)cc1-c1cccc(C(=O)O)c1 [compound 1] | 0.281 | 0.05 to 1
12 | O=C(O)c1cccc(-c2cc(Cl)ccc2OCCn2cnc3cc(F)ccc3c2=O)c1 [compound 3] | 4.72 | > 1
13 | O=C(O)c1cccc(-c2cc(Cl)ccc2OCCn2cnc3cccc(F)c3c2=O)c1 [compound 4] | 3.52 | > 1
14 | O=C(O)c1cccc(-c2cc(Cl)ccc2OCCn2ccc3cnccc3c2=O)c1 [compound 5] | 7.64 | > 1
15 | O=C(O)c1cccc(-c2cc(Cl)ccc2OCCn2ccc3ccncc3c2=O)c1 [compound 6] | 7.39 | > 1
16 | O=C(O)c1cccc(-c2cc(Cl)ccc2OCCn2ccc3cccnc3c2=O)c1 [compound 7] | 12 | > 1
17 | O=C(O)c1cccc(-c2cc(Cl)ccc2OCCn2ccc3ccccc3c2=O)c1 [compound 9] | > 30 | > 1
18 | O=C(O)c1cccc(-c2cc(Cl)ccc2OCCn2ccc3ncccc3c2=O)c1 [compound 10] | 6.51 | > 1

Continued, values first:

Row | IC50 [1] [µM] | IC50 [2] [µM] | Structure (SMILES)
19 | 0.0432 | – | Cc1cc(-c2cc(Cl)ccc2OCCn2c(C)nc3cc(C(F)(F)F)c(-c4ccccc4C#N)nc3c2=O)c2scc(C(=O)O)c2n1 [345a]
20 | 0.0253 | – | Cc1cc(-c2cc(Cl)ccc2OCCn2c(C)nc3cc(C(F)(F)F)c(-c4ccccc4C(N)=O)nc3c2=O)c2scc(C(=O)O)c2n1 [345b]
21 | 0.885 | – | Cc1cc(-c2cc(Cl)ccc2OCCn2c(C)nc3cc(C(F)(F)F)cc(O)c3c2=O)c2scc(C(=O)O)c2n1 [351a]
22 | 0.0936 | – | Cc1cc(-c2cc(Cl)ccc2OCCn2c(C)nc3cc(C(F)(F)F)ccc3c2=O)c2scc(C(=O)O)c2n1 [351b]
23 | 0.00287 | – | Cc1cc(-c2cc(Cl)ccc2OCCn2c(C)nc3cc(C(F)F)c(N(C)C)c(C#N)c3c2=O)c2scc(C(=O)O)c2n1 [439a]
24 | 0.032 | – | Cc1cc(-c2cc(Cl)ccc2OCCn2c(C)nc3cc(C(F)F)c(O)c(C#N)c3c2=O)c2scc(C(=O)O)c2n1 [439b]
25 | 1.94 | > 1 | Cc1cc(-c2nc3c(=O)n(CCOc4ccc(Cl)cc4-c4ccc(C#N)c5c(C(=O)O)csc45)c(C)nc3cc2C(F)(F)F)ccn1 [788Fa]
26 | 0.00435 | < 0.05 | Cc1cc(-c2nc3c(=O)n(CCOc4ccc(Cl)cc4-c4ccc(C(N)=O)c5c(C(=O)O)csc45)c(C)nc3cc2C(F)(F)F)ccn1 [788Fb]
